{"source": "paper PMC9331544", "about": "“Molecular Physicochemical Properties of Selected Pesticides as Predictive Factors for Oxidative Stress and Apoptosis-Dependent Cell Death in Caco-2 and HepG2 Cells” (International Journal of Molecular Sciences, 2022)", "key": {"Caco-2 cells [1]": {"test_system": "Caco-2 cells", "assay": "Intracellular ROS content, DCFDA, flow cytometry", "type": "cell-based, human", "settings": "24 h", "procedure": "(§1) To assess pesticides-induced oxidative stress, the intracellular content in reactive oxygen species (ROS), content in glutathione (GSH), and lipid peroxidation was quantified by flow cytometry, following the methods described by Domínguez-Perles, et al. and Queiroz, et al.. Briefly, to assess ROS content, cells re-suspended in PBS (from Section 3.3.1) were centrifuged (5 min, 3000 rpm, bench micro-centrifuge) and, after eliminating the supernatant, 200 μL of 10 µM DCFDA solution (prepared in FBS-free DMEM) was added to each sample. After a 45 min incubation at 37 °C (in the dark, in an incubator), cells were centrifuged to remove excess of probe and re-suspended in PBS. Finally, 5 μL of propidium iodide (PI; 50 μg/mL) was added to each sample 3 min before flow cytometry acquisition."}, "HepG2 cells [2]": {"test_system": "HepG2 cells", "assay": "Intracellular ROS content, DCFDA, flow cytometry", "type": "cell-based, human", "settings": "HepG2, 75 μM, 24 h", "procedure": "as §1"}, "Caco-2 cells [3]": {"test_system": "Caco-2 cells", "assay": "Glutathione (GSH) content, Mercury Orange, flow cytometry", "type": "cell-based, human", "procedure": "(§2) To assess GSH content, cells re-suspended in PBS (see Section 3.3.1) were incubated with 40 μM Mercury Orange (1-(4-chloromercuryphenyl-azo-2-naphtol) for 5 min (in the dark, room temperature), as described by du Plessis, et al.."}, "HepG2 cells [4]": {"test_system": "HepG2 cells", "assay": "Glutathione (GSH) content, Mercury Orange, flow cytometry", "type": "cell-based, human", "procedure": "as §2"}, "Caco-2 cells [5]": {"test_system": "Caco-2 cells", "assay": "Lipid peroxidation, DHPE-FITC probe, flow cytometry", "type": "cell-based, human", "settings": "Caco-2, 24 h, tested concentrations", "procedure": "(§3) Lipid peroxidation was evaluated using the DHPE-FITC probe. Cells re-suspended in PBS (see Section 3.3.1) were incubated with 20 μM DHPE-FITC, for 20 min in the dark at room temperature (as describe)."}, "HepG2 cells [6]": {"test_system": "HepG2 cells", "assay": "Lipid peroxidation, DHPE-FITC probe, flow cytometry", "type": "cell-based, human", "settings": "HepG2, 24 h, tested concentrations", "procedure": "as §3"}, "Caco-2 cells [7]": {"test_system": "Caco-2 cells", "settings": "for Caco-2 FL2/FL1 ratio: mean ± SD", "text": "(§4) Given the role of mitochondria in both oxidative stress and cell death (apoptosis), we evaluated the mitochondrial membrane potential (MMP) using the JC-1 probe (see methods for details). This probe accumulates in the mitochondria in the form of J-aggregates when in normal mitochondrial conditions (polarized) and presents red fluorescence. By contrast, in unhealthy cells, when depolarization occurs, JC-1 enters the mitochondria in lower concentrations forming monomers inducing a fluorescence shift to green fluorescence, thus the loss of MMP is observed through flow cytometry as a reduction in red (FL2) and an increase in green (FL1) fluorescence, or as a reduction in red/green (FL2/FL1) fluorescence ratio [45, 46].\n(§5) Pesticide-induced oxidative stress and apoptosis/necrosis events were analysed by flow cytometry. For this, one colour and two-colour flow cytometry assays were performed, using a BD Accuri™ C6 cytometer (Franklin Lakes, NJ, USA) equipment for data acquisition. Each assay was performed at least in triplicate (n = 3) and 5000 gated events were collected from each sample. Data analysis was performed using BD Accuri™ C6 Software, version 1.0.264.21 supplied by Becton Dickinson (Franklin Lakes, NJ, USA).\n(§6) Caco-2 and HepG2 cells (handled as described in Section 3.2.1) were seeded in 12-well microplates (at 5 × 10^4 cells/mL density; 750 µL/well), and allowed to adhere and stabilize for 48 h in the incubator. […] Negative control cells (non-exposed cells) were included in each assay. After a 24 h incubation with test solutions, cells were washed with phosphate buffer saline (PBS) solution and then detached from the microplates (as in Section 3.2.1) and placed in centrifuge tubes and centrifuged (5 min, 3000 rpm, bench micro-centrifuge). After eliminating the supernatant, cells were washed in PBS solution through another centrifuge cycle. Then cells were divided before being incubated with the specific markers to assess oxidative stress markers and cell apoptosis/necrosis.\n(§7) Mitochondrial membrane potential was analysed using JC-1 probe following the procedures as described by the manufacturer. Caco-2 and HepG2 cells suspended in PBS were centrifuged (5 min, 3000 rpm, bench micro-centrifuge), the supernatant was removed and 200 μL of JC-1 solution (2 μM; diluted in FBS-free culture media) was added to each sample. The samples were incubated for 20 min at 37 °C (in a CO2 incubator) and then analysed by flow cytometry. Negative control, non-exposed, and positive control cells exposed to the protonophore FCCP (5 μM; carbonyl cyanide p-trifluoromethoxyphenylhydrazone) were performed in each set of experiments."}, "HepG2 cells [8]": {"test_system": "HepG2 cells", "settings": "24 h; for HepG2 FL2/FL1 ratio: mean ± SD", "text": "as §4, §5, §6, §7"}, "Caco-2 cells [9]": {"test_system": "Caco-2 cells", "assay": "Apoptosis/necrosis, Annexin-V-FITC/PI double staining, flow cytometry", "type": "cell-based, human", "procedure": "(§8) The samples where then incubated for 20 min at room temperature. After this period, 5 μL of propidium iodide (PI; at 50 μg/mL) solution were added to each sample 3 min before acquisition."}, "HepG2 cells [10]": {"test_system": "HepG2 cells", "assay": "Apoptosis/necrosis, Annexin-V-FITC/PI double staining, flow cytometry", "type": "cell-based, human", "settings": "HepG2, 24 h, tested concentrations; listed as IMZ", "procedure": "as §8"}, "Caco-2 cells [11]": {"test_system": "Caco-2 cells", "assay": "Literature: Caco-2 cell viability", "type": "cell-based, human", "settings": "Caco-2, 24 h, ref [34] value vs Table 1"}, "Caco-2 cells [12]": {"test_system": "Caco-2 cells", "settings": "Caco-2, 24 h, ref [34], cited from earlier work"}, "[13]": {"settings": "ref [47],[48],[49],[50]; cited from earlier work"}, "[14]": {"settings": "ref [47],[48],[49],[50]; cited from earlier work", "remark": "listed apart in the source"}, "[15]": {"settings": "Caco-2, 24 h, tested concentrations, listed as IMZ"}}, "note": "Entries after “also recorded” stand apart in the source; their conditions may differ. Where two headings read alike, the source gives them in different places.", "data": [{"smiles": "C=CCOC(Cn1ccnc1)c1ccc(Cl)cc1Cl", "note": "(stereo not drawn) [Imazalil, imazalil]", "values": [{"measurement": "increase in ROS content compared with control", "setting": "Caco-2 cells [1]; Caco-2, 75 μM", "value": 2.40, "unit": "fold"}, {"measurement": "increase in ROS content compared with control", "setting": "Caco-2 cells [1]; Caco-2, 250 μM", "value": 6.5, "unit": "fold"}, {"measurement": "increase in ROS content compared with control", "setting": "HepG2 cells [2]", "value": 4.56, "unit": "fold"}, {"measurement": "increase in GSH content vs control", "setting": "Caco-2 cells [3]; Caco-2, 250 μM, 24 h", "value": 1.59, "unit": "fold"}, {"measurement": "change in GSH content vs control (in words)", "setting": "Caco-2 cells [3]; Caco-2, 24 h, tested concentrations", "value": "dose-dependent increase in GSH content"}, {"measurement": "increase in GSH content vs control", "setting": "HepG2 cells [4]; HepG2, 75 μM, 24 h", "value": 1.97, "unit": "fold"}, {"measurement": "change in GSH content vs control (in words)", "setting": "HepG2 cells [4]; HepG2, 24 h, tested concentrations", "value": "dose-dependent increase in GSH content"}, {"measurement": "lipid peroxidation (LP) vs control (in words)", "setting": "Caco-2 cells [5]", "value": "induced significant LP"}, {"measurement": "lipid peroxidation (LP) vs control (in words)", "setting": "HepG2 cells [6]", "value": "did not increase lipid peroxidation"}, {"measurement": "FL2/FL1 ratio reduction (% of control)", "setting": "Caco-2 cells [7]; Caco-2, 50 μM, 24 h", "value": "30.83±9.05 % of control"}, {"measurement": "Caco-2 FL2/FL1 ratio", "setting": "Caco-2 cells [7]; Caco-2, 50 μM, 24 h", "value": "0.55±0.02"}, {"measurement": "FL2/FL1 ratio reduced, relative to negative control", "setting": "Caco-2 cells [7]; Caco-2, 75 μM, 24 h", "value": 1.54, "unit": "times"}, {"measurement": "FL2/FL1 ratio reduction (% of control)", "setting": "Caco-2 cells [7]; Caco-2, 75 μM, 24 h", "value": "34.30±6.61 % of control"}, {"measurement": "Caco-2 FL2/FL1 ratio", "setting": "Caco-2 cells [7]; Caco-2, 75 μM, 24 h", "value": "0.52±0.03"}, {"measurement": "FL2/FL1 ratio reduction (% of control)", "setting": "Caco-2 cells [7]; Caco-2, 75 μM, 24 h, listed as IMZ", "value": "~ 34 % of control"}, {"measurement": "FL2/FL1 ratio reduction (% of control)", "setting": "Caco-2 cells [7]; Caco-2, 250 μM, 24 h", "value": "96.08±0.47 % of control"}, {"measurement": "Caco-2 FL2/FL1 ratio", "setting": "Caco-2 cells [7]; Caco-2, 250 μM, 24 h", "value": "0.03±0.01"}, {"measurement": "change in mitochondrial membrane potential (in words)", "setting": "Caco-2 cells [7]; [15]", "value": "induced high changes in Caco-2 MMP"}, {"measurement": "FL2/FL1 ratio reduction (% of control)", "setting": "HepG2 cells [8]; HepG2, 25 μM", "value": "56.22±16.07 % of control"}, {"measurement": "HepG2 FL2/FL1 ratio", "setting": "HepG2 cells [8]; HepG2, 25 μM", "value": "0.10±0.03"}, {"measurement": "FL2/FL1 ratio reduction (% of control)", "setting": "HepG2 cells [8]; HepG2, 50 μM", "value": "57.15±8.10 % of control"}, {"measurement": "HepG2 FL2/FL1 ratio", "setting": "HepG2 cells [8]; HepG2, 50 μM", "value": "0.10±0.02"}, {"measurement": "FL2/FL1 ratio reduced, relative to negative control", "setting": "HepG2 cells [8]; HepG2, 75 μM", "value": 3.38, "unit": "times"}, {"measurement": "FL2/FL1 ratio reduction (% of control)", "setting": "HepG2 cells [8]; HepG2, 75 μM", "value": "72.95±0.28 % of control"}, {"measurement": "HepG2 FL2/FL1 ratio", "setting": "HepG2 cells [8]; HepG2, 75 μM", "value": "0.06±0.01"}, {"measurement": "FL2/FL1 ratio reduction (% of control)", "setting": "HepG2 cells [8]; HepG2, 75 μM, listed as IMZ", "value": "~ 73 % of control"}, {"measurement": "apoptosis/necrosis induction (in words)", "setting": "Caco-2 cells [9]; [15]", "value": "dose-dependent increase in late apoptosis"}, {"measurement": "cells in necrosis", "setting": "Caco-2 cells [9]; Caco-2, highest concentration (250 μM), 24 h, Figure 6B", "value": "~ 23%"}, {"measurement": "apoptosis/necrosis induction (in words)", "setting": "HepG2 cells [10]", "value": "dose-dependently increased apoptosis; also recorded: no necrotic events recorded"}, {"measurement": "literature IC50 lower than the IC50 here reported", "setting": "Caco-2 cells [11]", "value": 2.53, "unit": "fold"}, {"measurement": "IC50", "setting": "Caco-2 cells [12]; converted value, read-out: IC50 (cytotoxicity)", "value": "~100", "unit": "µM"}, {"measurement": "IC50 (cytotoxicity)", "setting": "Caco-2 cells [12]", "value": 30, "unit": "µg/mL"}, {"measurement": "Partition Coefficient n-octanol/water (Log Pow)", "setting": "[13]", "value": 4.56}, {"measurement": "Water solubility", "setting": "[13]", "value": 1.4, "unit": "g/L"}, {"measurement": "H-bond (donor count)", "setting": "[14]", "value": 0}, {"measurement": "H-donor (acceptor count)", "setting": "[14]", "value": 2}]}]}
